Columns and labels:
[1] = tested on: HPA axis activity (cortisol, ACTH) and melatonin in chronic insomnia subjects; experiment: Overnight melatonin (dim light), cortisol and ACTH levels in the insomnia study; format: in vivo, human; conditions: after 5 days treatment in the outpatient setting, FIG. 3
subjects with insomnia [2] = experiment: Actigraphy measures of TST and WASO, outpatient portion of the insomnia study; format: in vivo, human; conditions: Tx (n = 2)
[3] = target: T1, glucocorticoid (GR) receptors (Homo sapiens, UniProt P04150); conditions: literature; cited from earlier work
T1 sequence (P04150 1-777): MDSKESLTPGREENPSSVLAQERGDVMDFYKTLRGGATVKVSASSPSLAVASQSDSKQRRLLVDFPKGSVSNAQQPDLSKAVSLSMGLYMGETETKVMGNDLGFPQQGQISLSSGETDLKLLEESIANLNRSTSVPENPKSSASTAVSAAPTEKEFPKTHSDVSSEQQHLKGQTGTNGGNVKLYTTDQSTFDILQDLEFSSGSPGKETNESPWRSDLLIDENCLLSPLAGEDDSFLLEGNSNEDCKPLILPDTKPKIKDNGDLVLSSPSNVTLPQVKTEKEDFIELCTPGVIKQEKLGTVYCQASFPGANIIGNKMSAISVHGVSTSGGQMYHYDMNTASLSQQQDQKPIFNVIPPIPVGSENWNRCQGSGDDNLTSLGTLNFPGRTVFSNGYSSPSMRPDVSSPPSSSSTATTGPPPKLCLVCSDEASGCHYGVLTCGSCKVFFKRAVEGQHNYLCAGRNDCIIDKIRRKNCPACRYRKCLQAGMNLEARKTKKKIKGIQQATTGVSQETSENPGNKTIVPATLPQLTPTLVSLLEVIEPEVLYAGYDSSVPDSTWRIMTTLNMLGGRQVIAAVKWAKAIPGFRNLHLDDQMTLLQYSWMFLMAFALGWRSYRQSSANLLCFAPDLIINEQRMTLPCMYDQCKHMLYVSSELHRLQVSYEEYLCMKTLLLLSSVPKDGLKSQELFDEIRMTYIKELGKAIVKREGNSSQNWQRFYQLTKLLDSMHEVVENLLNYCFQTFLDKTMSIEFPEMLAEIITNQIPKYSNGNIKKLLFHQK

subjects with insomnia [4] = experiment: Polysomnogram measures, double-blinded placebo controlled study of 5 days mifepristone in insomnia; format: in vivo, human; conditions: for % REM, average / % S1, average / % S2, average / % S3, average / % S4, average / Arousal, average / NUAW, average / Rem Lat, average / Rem density, average / S3 Lat, average / SE (S2, S3, S4), average / SE (S3, S4), average / SPT, average / TST, average / WASO, average: Rx Ave (n = 5)
[5] = one study, Kawai (1989); cited from earlier work
healthy male = conditions: given in the afternoon, Wiedemann 1992; cited from earlier work
[6] = 2 Wk Post Tx rel to Baseline, Tx Delta
[7] = 2 Wk Post Tx rel to Baseline, Tx rel to Plac
[8] = Day 5 Tx rel to Baseline, Tx Delta
[9] = Day 5 Tx rel to Baseline, Tx rel to Plac

Question: What does the source list for `CC#C[C@]1(O)CC[C@H]2[C@@H]3CCC4=CC(=O)CCC4=C3[C@@H](c3ccc(N(C)C)cc3)C[C@@]21C` [mifepristone, 17-beta-hydroxy-11-beta-(4-dimethyl-aminophenyl)-17-alpha-(1-propynyl)-estra-4,9-dien-3-one]?
Answer: DLMO (time at which melatonin reaches 20 pg/ml) [1]: delay; D7AV-smin (actigraphy TST) (subjects with insomnia [2]; D7AV): 458.86 min; D7AV-waso (actigraphy WASO) (subjects with insomnia [2]; D7AV): 45.14; D20AV-smin (actigraphy TST) (subjects with insomnia [2]; D20AV): 448.40 min; D20AV-waso (actigraphy WASO) (subjects with insomnia [2]; D20AV): 51.70; D26AV-smin (actigraphy TST) (subjects with insomnia [2]; D26AV): 473.08 min; D26AV-waso (actigraphy WASO) (subjects with insomnia [2]; D26AV): 31.67; antagonist of glucocorticoid (GR) receptors [3]: powerful antagonist; % REM (percentage REM sleep) (subjects with insomnia [4]; [6]): 1.63%; % S1 (percentage stage 1 sleep) (subjects with insomnia [4]; [6]): −39.19%; % S2 (percentage stage 2 sleep) (subjects with insomnia [4]; [6]): −2.68%; % S3 (percentage stage 3 sleep) (subjects with insomnia [4]; [6]): 1.09%; % S4 (percentage stage 4 sleep) (subjects with insomnia [4]; [6]): −1.48%; Arousal (subjects with insomnia [4]; [6]): 5.2; NUAW (number of awakenings) (subjects with insomnia [4]; [6]): 0; Rem Lat (minutes to first epoch of REM after sleep onset) (subjects with insomnia [4]; [6]): -4 min; Rem p (subjects with insomnia [4]; [6]): 1.972; S3 Lat (latency to onset of stage 3 sleep) (subjects with insomnia [4]; [6]): -0.85 min; SEB (S2, S3, S4) (total combined minutes of stage 2, 3 and 4 per total sleep minutes) (subjects with insomnia [4]; [6]): 2.57; SEC (S3, S4) (total combined minutes of stage 3, 4 per total sleep minutes) (subjects with insomnia [4]; [6]): 1.19; SPT (subjects with insomnia [4]; [6]): 28.1 min; TST (total combined minutes of sleep) (subjects with insomnia [4]; [6]): 38.5 min; WASO (wake after sleep onset) (subjects with insomnia [4]; [6]): -10.4 min; % REM (percentage REM sleep) (subjects with insomnia [4]; [7]): 1.31%; % S1 (percentage stage 1 sleep) (subjects with insomnia [4]; [7]): −0.01%; % S2 (percentage stage 2 sleep) (subjects with insomnia [4]; [7]): −5.05%; % S3 (percentage stage 3 sleep) (subjects with insomnia [4]; [7]): 1.45%; % S4 (percentage stage 4 sleep) (subjects with insomnia [4]; [7]): −0.98%; Arousal (subjects with insomnia [4]; [7]): −3.7; NUAW (number of awakenings) (subjects with insomnia [4]; [7]): 1.5; Rem Lat (minutes to first epoch of REM after sleep onset) (subjects with insomnia [4]; [7]): 39.5 min; Rem p (subjects with insomnia [4]; [7]): 2.73; S3 Lat (latency to onset of stage 3 sleep) (subjects with insomnia [4]; [7]): 23.1 min; SEB (S2, S3, S4) (total combined minutes of stage 2, 3 and 4 per total sleep minutes) (subjects with insomnia [4]; [7]): −1.34; SEC (S3, S4) (total combined minutes of stage 3, 4 per total sleep minutes) (subjects with insomnia [4]; [7]): 2.02; SPT (subjects with insomnia [4]; [7]): 29.55 min; TST (total combined minutes of sleep) (subjects with insomnia [4]; [7]): 21.65 min; WASO (wake after sleep onset) (subjects with insomnia [4]; [7]): 7.85 min; % REM (percentage REM sleep) (subjects with insomnia [4]; [8]): −9.33%; % S1 (percentage stage 1 sleep) (subjects with insomnia [4]; [8]): −38.34%; % S2 (percentage stage 2 sleep) (subjects with insomnia [4]; [8]): 6.44%; % S3 (percentage stage 3 sleep) (subjects with insomnia [4]; [8]): 0.76%; % S4 (percentage stage 4 sleep) (subjects with insomnia [4]; [8]): −0.01%; Arousal (subjects with insomnia [4]; [8]): 0.9; NUAW (number of awakenings) (subjects with insomnia [4]; [8]): 3.3; Rem Lat (minutes to first epoch of REM after sleep onset) (subjects with insomnia [4]; [8]): 61.15 min; Rem p (subjects with insomnia [4]; [8]): −0.826; S3 Lat (latency to onset of stage 3 sleep) (subjects with insomnia [4]; [8]): 7.05 min; SEB (S2, S3, S4) (total combined minutes of stage 2, 3 and 4 per total sleep minutes) (subjects with insomnia [4]; [8]): −2.13; SEC (S3, S4) (total combined minutes of stage 3, 4 per total sleep minutes) (subjects with insomnia [4]; [8]): −7.3; SPT (subjects with insomnia [4]; [8]): 28.69 min; TST (total combined minutes of sleep) (subjects with insomnia [4]; [8]): 17.05 min; WASO (wake after sleep onset) (subjects with insomnia [4]; Day 5 Tx rel to Baseline, Tx Delta, 600 mg/day in the morning, 5 days): 16.4 min; % REM (percentage REM sleep) (subjects with insomnia [4]; [9]): −9.69%; % S1 (percentage stage 1 sleep) (subjects with insomnia [4]; [9]): 1.76%; % S2 (percentage stage 2 sleep) (subjects with insomnia [4]; [9]): 3.9%; % S3 (percentage stage 3 sleep) (subjects with insomnia [4]; [9]): 0.71%; % S4 (percentage stage 4 sleep) (subjects with insomnia [4]; [9]): 0.42%; Arousal (subjects with insomnia [4]; [9]): −3.8; NUAW (number of awakenings) (subjects with insomnia [4]; [9]): 5; Rem Lat (minutes to first epoch of REM after sleep onset) (subjects with insomnia [4]; [9]): 99.6 min; Rem p (subjects with insomnia [4]; [9]): 0.654; S3 Lat (latency to onset of stage 3 sleep) (subjects with insomnia [4]; [9]): 19.35 min; SEB (S2, S3, S4) (total combined minutes of stage 2, 3 and 4 per total sleep minutes) (subjects with insomnia [4]; [9]): −6.85; SEC (S3, S4) (total combined minutes of stage 3, 4 per total sleep minutes) (subjects with insomnia [4]; [9]): −7.45; SPT (subjects with insomnia [4]; [9]): 29.39 min; TST (total combined minutes of sleep) (subjects with insomnia [4]; [9]): -3.75 min; WASO (wake after sleep onset) (subjects with insomnia [4]; [9]): 37.85 min; % REM, average (subjects with insomnia [4]; T2): 11.62%; % S1, average (subjects with insomnia [4]; T2): 15.48%; % S2, average (subjects with insomnia [4]; T2): 60.26%; % S3, average (subjects with insomnia [4]; T2): 7.63%; % S4, average (subjects with insomnia [4]; T2): 4.36%; Arousal, average (subjects with insomnia [4]; T2): 105.70; NUAW, average (subjects with insomnia [4]; T2): 27.60; Rem Lat, average (subjects with insomnia [4]; T2): 137.95 min; Rem density, average (subjects with insomnia [4]; T2): 7.16; S3 Lat, average (subjects with insomnia [4]; T2): 24.80 min; SE (S2, S3, S4), average (subjects with insomnia [4]; T2): 83.34; SE (S3, S4), average (subjects with insomnia [4]; T2): 24.94; SPT, average (subjects with insomnia [4]; T2): 469.24 min; TST, average (subjects with insomnia [4]; T2): 390.65 min; WASO, average (subjects with insomnia [4]; T2): 83.35 min; % REM, average (subjects with insomnia [4]; T3): 22.58%; % S1, average (subjects with insomnia [4]; T3): 14.63%; % S2, average (subjects with insomnia [4]; T3): 51.14%; % S3, average (subjects with insomnia [4]; T3): 7.96%; % S4, average (subjects with insomnia [4]; T3): 2.89%; Arousal, average (subjects with insomnia [4]; T3): 110.00; NUAW, average (subjects with insomnia [4]; T3): 24.30; Rem Lat, average (subjects with insomnia [4]; T3): 72.80 min; Rem density, average (subjects with insomnia [4]; T3): 9.95; S3 Lat, average (subjects with insomnia [4]; T3): 16.90 min; SE (S2, S3, S4), average (subjects with insomnia [4]; T3): 88.04; SE (S3, S4), average (subjects with insomnia [4]; T3): 33.43; SPT, average (subjects with insomnia [4]; T3): 468.65 min; TST, average (subjects with insomnia [4]; T3): 412.10 min; WASO, average (subjects with insomnia [4]; T3): 56.55 min; total sleep time (TST), in words (subjects with insomnia [4]; at 2 weeks post treatment): increased; REM latency (RL), in words (subjects with insomnia [4]; most acutely during active treatment): increased; excreted in the urine [5]: less than 0.5 % of the daily dose; effect on sleep (healthy male): significant worsening of sleep
